According to patent publication US20130053430A1, “MODULATION OF CETP EXPRESSION” (Isis Pharmaceuticals, Inc., priority 2010, published 2013):
Strand notation (5' to 3'): a small letter for the sugar, then the base; units joined by * are phosphorothioate-linked, units joined directly phosphodiester-linked; [ ] holds rarer units or linkages, { } end groups; capitals alone tell only the bases. e = 2'-O-(2-methoxyethyl) (MOE); [5mC] = 5-methylcytosine; d = 2'-deoxy (DNA)

How the values were obtained:
[1] = Plasma cholesterol and triglyceride levels in huApoB/huCETP/mLDLr mouse model (Example 7); format: in vivo, mice; details: huApoB+/−huCETP+/−mLDLr+/− mice (Groups B-E), ASO 25 mg/kg s.c. twice/week
Text: The huApoB^+/−huCETP^+/−mLDLr^+/− mice were divided into five groups of 5-7 mice each. […] The saline-injected group served as the control group to which oligonucleotide-treated groups were compared. […] This group served a negative control for the effects of the antisense oligonucleotides against CETP. The groups are further described in Table 27, and are designated letters A-F, by which they will be referred from henceforth.
HDL and LDL cholesterol were individually measured by HPLC. Triglyceride levels were measured on weeks 0, 3 and 6 with the use of a commercially available triglyceride kit (DCL Triglyceride Reagent; Diagnostic Chemicals Ltd.).

[2] = system: human CETP mRNA; assay: Antisense inhibition of human CETP mRNA in SW872 liposarcoma cells (Example 1); format: cell-based; details: 150 nM antisense oligonucleotide, lipofectin, ~24 hours, relative to untreated control cells
Experimental: Antisense oligonucleotides targeted to a CETP nucleic acid were tested for their effect on CETP mRNA transcript in vitro. Cultured SW872 liposarcoma cells at a density of 50,000 cells per well in a 24-well plate were transfected using lipofectin reagent with 150 nM antisense oligonucleotide. After approximately 24 hours, RNA was isolated from the cells and CETP mRNA levels were measured by quantitative real-time PCR. A human primer probe set (forward sequence […], designated herein as SEQ ID NO: 38; reverse sequence GGCTCACGCCTTTGCTGTT, designated herein as SEQ ID NO: 39; probe sequence […], designated herein as SEQ ID NO: 40) was used to quantitate CETP mRNA. CETP mRNA transcript levels were adjusted according to total RNA content, as measured by the house-keeping gene, GAPDH mRNA levels. GAPDH was measured using a primer probe set with the sequence as set forth in SEQ ID NOs: 10, 11, 13. Results are presented as percent inhibition of CETP, relative to untreated control cells.
The antisense oligonucleotides in Table 3 are 5-10-5 gapmers, where the gap segment comprises ten 2′-deoxynucleosides and each wing segment comprises five 2′-MOE nucleosides. Each nucleotide in the 5′ wing segment and each nucleotide in the 3′ wing segment has a 2′-MOE modification. The internucleoside linkages throughout each gapmer are phosphorothioate (P═S) linkages. All cytosine residues throughout each gapmer are 5-methylcytosines. ‘Target start site’ indicates the 5′-most nucleotide to which the antisense oligonucleotide is targeted. ‘Target stop site’ indicates the 3′-most nucleotide to which the antisense oligonucleotide is targeted. All the antisense oligonucleotides listed in Table 3 target human CETP mRNA, designated herein as SEQ ID NO: 1 (GENBANK Accession No. M30185.1).

[3] = system: human CETP mRNA; assay: Antisense inhibition of human CETP mRNA in primary hepatocytes from huCETP transgenic mice (Example 4); format: cell-based, mouse; details: cytofectin, ~24 hours
Experimental: Transgenic mice expressing human CETP, controlled by its natural flanking region, increase expression of this gene in response to hypercholesterolemia (Jiang, X. C. et al., J. Clin. Invest. 1992. 90: 1290-1295). These mice were utilized for the following studies. Antisense oligonucleotides targeted to a CETP nucleic acid and described in Example 1 were tested for their effect on CETP mRNA transcript in vitro. Cultured primary hepatocytes from huCETP transgenic mice, at a density of 17,500 cells per well in a 96-well plate, were transfected using cytofectin reagent with 100 nM or 200 nM antisense oligonucleotide. After approximately 24 hours, RNA was isolated from the cells and CETP mRNA levels were measured by quantitative real-time PCR. CETP mRNA transcript levels were adjusted according to total RNA content, as measured by the house-keeping gene, GAPDH mRNA levels. Results are presented in Table 6 as percent inhibition of CETP, relative to untreated control cells.

O=C(O)c1cccnc1 [Nicotinic acid, nicotinic acid, reference compound]
% HDL/total cholesterol ([1]; Week 0): 23%
HDL cholesterol levels ([1]; Week 0): 45 mg/dL
LDL cholesterol levels ([1]; Week 0): 122 mg/dL
Total cholesterol levels ([1]; Week 0): 195 mg/dL
Triglyceride levels ([1]; Week 0): 134 mg/dL
% HDL/total cholesterol ([1]; Week 3): 34%
HDL cholesterol levels ([1]; Week 3): 57 mg/dL
LDL cholesterol levels ([1]; Week 3): 102 mg/dL
Total cholesterol levels ([1]; Week 3): 169 mg/dL
Triglyceride levels ([1]; Week 3): 108 mg/dL
% HDL/total cholesterol ([1]; Week 6): 39%
HDL cholesterol levels ([1]; Week 6): 65 mg/dL
LDL cholesterol levels ([1]; Week 6): 102 mg/dL
Total cholesterol levels ([1]; Week 6): 170 mg/dL
Triglyceride levels ([1]; Week 6): 138 mg/dL

ISIS 133837: 5-10-5 MOE gapmer TCCACCAGCAGGTGCTCAGG (eT*e[5mC]*e[5mC]*eA*e[5mC]*d[5mC]*dA*dG*d[5mC]*dA*dG*dG*dT*dG*d[5mC]*eT*e[5mC]*eA*eG*eG)
% inhibition [2]: 70%

ISIS 349444: 5-10-5 MOE gapmer TCCTGGCCCCAGAGATTCAC (eT*e[5mC]*e[5mC]*eT*eG*dG*d[5mC]*d[5mC]*d[5mC]*d[5mC]*dA*dG*dA*dG*dA*eT*eT*e[5mC]*eA*e[5mC])
Percent inhibition of human CETP mRNA ([3]; 100 nM): 59%
Percent inhibition of human CETP mRNA ([3]; 200 nM): 0%
% inhibition [2]: 20%

ISIS 349445: 5-10-5 MOE gapmer CAGCAGGGTCTTCCTGGCCC (e[5mC]*eA*eG*e[5mC]*eA*dG*dG*dG*dT*d[5mC]*dT*dT*d[5mC]*d[5mC]*dT*eG*eG*e[5mC]*e[5mC]*e[5mC])
Percent inhibition of human CETP mRNA ([3]; 100 nM): 74%
Percent inhibition of human CETP mRNA ([3]; 200 nM): 71%
% inhibition [2]: 6%

ISIS 349446: 5-10-5 MOE gapmer GGAACATGAGGCTCTTCCGG (eG*eG*eA*eA*e[5mC]*dA*dT*dG*dA*dG*dG*d[5mC]*dT*d[5mC]*dT*eT*e[5mC]*e[5mC]*eG*eG)
Percent inhibition of human CETP mRNA ([3]; 100 nM): 34%
Percent inhibition of human CETP mRNA ([3]; 200 nM): 36%
% inhibition [2]: 0%

ISIS 349447: 5-10-5 MOE gapmer TATGTATGTCCGCCCAGCCC (eT*eA*eT*eG*eT*dA*dT*dG*dT*d[5mC]*d[5mC]*dG*d[5mC]*d[5mC]*d[5mC]*eA*eG*e[5mC]*e[5mC]*e[5mC])
Percent inhibition of human CETP mRNA ([3]; 100 nM): 57%
Percent inhibition of human CETP mRNA ([3]; 200 nM): 28%
% inhibition [2]: 15%

ISIS 349448: 5-10-5 MOE gapmer CCGTATATGTATGTCCGCCC (e[5mC]*e[5mC]*eG*eT*eA*dT*dA*dT*dG*dT*dA*dT*dG*dT*d[5mC]*e[5mC]*eG*e[5mC]*e[5mC]*e[5mC])
Percent inhibition of human CETP mRNA ([3]; 100 nM): 53%
Percent inhibition of human CETP mRNA ([3]; 200 nM): 40%
% inhibition [2]: 0%

ISIS 349449: 5-10-5 MOE gapmer CGAGCCGTTCAGCCTGGAGC (e[5mC]*eG*eA*eG*e[5mC]*d[5mC]*dG*dT*dT*d[5mC]*dA*dG*d[5mC]*d[5mC]*dT*eG*eG*eA*eG*e[5mC])
Percent inhibition of human CETP mRNA ([3]; 100 nM): 68%
Percent inhibition of human CETP mRNA ([3]; 200 nM): 63%
% inhibition [2]: 28%

ISIS 349450: 5-10-5 MOE gapmer GCAGTGGTGTGTAAGTGGCC (eG*e[5mC]*eA*eG*eT*dG*dG*dT*dG*dT*dG*dT*dA*dA*dG*eT*eG*eG*e[5mC]*e[5mC])
Percent inhibition of human CETP mRNA ([3]; 100 nM): 89%
Percent inhibition of human CETP mRNA ([3]; 200 nM): 59%
% inhibition [2]: 21%

ISIS 349451: 5-10-5 MOE gapmer GCAGCCAGCATGGTTATCAG (eG*e[5mC]*eA*eG*e[5mC]*d[5mC]*dA*dG*d[5mC]*dA*dT*dG*dG*dT*dT*eA*eT*e[5mC]*eA*eG)
Percent inhibition of human CETP mRNA ([3]; 100 nM): 42%
Percent inhibition of human CETP mRNA ([3]; 200 nM): 54%
% inhibition [2]: 23%

ISIS 349452: 5-10-5 MOE gapmer CAGGACTGTGGCAGCCAGCA (e[5mC]*eA*eG*eG*eA*d[5mC]*dT*dG*dT*dG*dG*d[5mC]*dA*dG*d[5mC]*e[5mC]*eA*eG*e[5mC]*eA)
Percent inhibition of human CETP mRNA ([3]; 100 nM): 60%
Percent inhibition of human CETP mRNA ([3]; 200 nM): 51%
% inhibition [2]: 75%

ISIS 349453: 5-10-5 MOE gapmer GCATTGCCCAGCAGGGCCAG (eG*e[5mC]*eA*eT*eT*dG*d[5mC]*d[5mC]*d[5mC]*dA*dG*d[5mC]*dA*dG*dG*eG*e[5mC]*e[5mC]*eA*eG)
Percent inhibition of human CETP mRNA ([3]; 100 nM): 2%
Percent inhibition of human CETP mRNA ([3]; 200 nM): 26%
% inhibition [2]: 45%

ISIS 349454: 5-10-5 MOE gapmer GTGCCTTTGGAGCAGGCATG (eG*eT*eG*e[5mC]*e[5mC]*dT*dT*dT*dG*dG*dA*dG*d[5mC]*dA*dG*eG*e[5mC]*eA*eT*eG)
Percent inhibition of human CETP mRNA ([3]; 100 nM): 69%
Percent inhibition of human CETP mRNA ([3]; 200 nM): 68%
% inhibition [2]: 46%

ISIS 349455: 5-10-5 MOE gapmer CGATGCCTGCCTCGTGCGAG (e[5mC]*eG*eA*eT*eG*d[5mC]*d[5mC]*dT*dG*d[5mC]*d[5mC]*dT*d[5mC]*dG*dT*eG*e[5mC]*eG*eA*eG)
Percent inhibition of human CETP mRNA ([3]; 100 nM): 25%
Percent inhibition of human CETP mRNA ([3]; 200 nM): 17%
% inhibition [2]: 35%

ISIS 349456: 5-10-5 MOE gapmer TCGTGGTTCAACACCAGGAG (eT*e[5mC]*eG*eT*eG*dG*dT*dT*d[5mC]*dA*dA*d[5mC]*dA*d[5mC]*d[5mC]*eA*eG*eG*eA*eG)
Percent inhibition of human CETP mRNA ([3]; 100 nM): 74%
Percent inhibition of human CETP mRNA ([3]; 200 nM): 51%
% inhibition [2]: 68%

ISIS 349457: 5-10-5 MOE gapmer TCTGGATCACCTTGGCAGTC (eT*e[5mC]*eT*eG*eG*dA*dT*d[5mC]*dA*d[5mC]*d[5mC]*dT*dT*dG*dG*e[5mC]*eA*eG*eT*e[5mC])
Percent inhibition of human CETP mRNA ([3]; 100 nM): 42%
Percent inhibition of human CETP mRNA ([3]; 200 nM): 30%
% inhibition [2]: 52%

ISIS 349458: 5-10-5 MOE gapmer GGTAGCTGGCTCGCTGGAAG (eG*eG*eT*eA*eG*d[5mC]*dT*dG*dG*d[5mC]*dT*d[5mC]*dG*d[5mC]*dT*eG*eG*eA*eA*eG)
Percent inhibition of human CETP mRNA ([3]; 100 nM): 65%
Percent inhibition of human CETP mRNA ([3]; 200 nM): 32%
% inhibition [2]: 18%

ISIS 349459: 5-10-5 MOE gapmer CTTCTCGCCCGTGATATCTG (e[5mC]*eT*eT*e[5mC]*eT*d[5mC]*dG*d[5mC]*d[5mC]*d[5mC]*dG*dT*dG*dA*dT*eA*eT*e[5mC]*eT*eG)
Percent inhibition of human CETP mRNA ([3]; 100 nM): 50%
Percent inhibition of human CETP mRNA ([3]; 200 nM): 63%
% inhibition [2]: 79%

ISIS 349460: 5-10-5 MOE gapmer GCATCATGGCCTTCTCGCCC (eG*e[5mC]*eA*eT*e[5mC]*dA*dT*dG*dG*d[5mC]*d[5mC]*dT*dT*d[5mC]*dT*e[5mC]*eG*e[5mC]*e[5mC]*e[5mC])
Percent inhibition of human CETP mRNA ([3]; 100 nM): 67%
Percent inhibition of human CETP mRNA ([3]; 200 nM): 76%
% inhibition [2]: 80%

ISIS 349462: 5-10-5 MOE gapmer ATCTGGATGTTGTGCAACCC (eA*eT*e[5mC]*eT*eG*dG*dA*dT*dG*dT*dT*dG*dT*dG*d[5mC]*eA*eA*e[5mC]*e[5mC]*e[5mC])
Percent inhibition of human CETP mRNA ([3]; 100 nM): 60%
Percent inhibition of human CETP mRNA ([3]; 200 nM): 76%
% inhibition [2]: 76%

ISIS 349463: 5-10-5 MOE gapmer CTGCTGGCGATGGACAAGTG (e[5mC]*eT*eG*e[5mC]*eT*dG*dG*d[5mC]*dG*dA*dT*dG*dG*dA*d[5mC]*eA*eA*eG*eT*eG)
Percent inhibition of human CETP mRNA ([3]; 100 nM): 58%
Percent inhibition of human CETP mRNA ([3]; 200 nM): 62%
% inhibition [2]: 77%

ISIS 349464: 5-10-5 MOE gapmer CTTCCACCAGCTCCACCTGG (e[5mC]*eT*eT*e[5mC]*e[5mC]*dA*d[5mC]*d[5mC]*dA*dG*d[5mC]*dT*d[5mC]*d[5mC]*dA*e[5mC]*e[5mC]*eT*eG*eG)
Percent inhibition of human CETP mRNA ([3]; 100 nM): 8%
Percent inhibition of human CETP mRNA ([3]; 200 nM): 56%
% inhibition [2]: 50%
